Test results published in patent US20070232690A1, “Composition for inducing differentiation of leukemic cells and application thereof” (Mackay Memorial Hospital, priority 2006, published 2007).
In brackets after ≈: the same amount, converted by molar mass. Marks after values point to notes of the source that are not given here. Blank lines part the entries; values can stand above or below the compound they belong to.

What was measured:
Assay type in all cases: cell-based, human
HL-60 cells [1] = assay: Induction of monocytic differentiation by various combination treatments
HL-60 cells [2] = assay: Assay for differentiation antigens (indirect immunofluorescence, flow cytometry); details: day 5
Protocol: An indirect immunofluorescence method was employed in the invention to detect the expression of monocyte-associated antigens on the surface of HL-60 cells after induction of differentiation. 278E-treated cells collected from day 5 cultures were treated with primary monoclonal antibodies, washed with PBS and then exposed to a solution containing […] (FITC) conjugated secondary antibody, goat F(ab′)2 antimouse IgG (Cappel, Cochranville, Pa.). The aforementioned monoclonal antibodies against human monocytes included anti-CD 11b, anti-CD14 (Serotec, Oxford, UK), and anti-CD68 (Dakopatts, Glostrup, Denmark). The percentage of positive cells analyzed with a FACScan flow cytometer (Becton Dickenson, Franklin Lakes, N.J.) and Lysis II software (Becton Dickinson) is shown in Table 2.

HL-60 cells [3] = assay: Maturation profiles (morphology, Wright's stain)
Protocol: (§1) After 5 days of treatments (1-5 μg/ml of 278E) as described in Example 1, HL-60 cells were collected and cytocentrifuged onto a microscope slide using a Cytospin, stained with Wright's stain and observed under an inverted microscope (Olympus) with a magnification of 1000×. Based on morphology, the cells were classified as: (1) immature blasts, (2) intermediates, or (3) mature monocytes or macrophages, and the ratio was counted respectively.

[4] = system: c-myc, c-fms, c-fos and c-jun in HL-60 cells; assay: Expression of proto-oncogenes (RNA blot)
Protocol: Total RNA was isolated from HL-60 cells using an RNAzol B kit (Biotecx, Galveston, Tex.) and quantified spectrophotometrically. Total cellular RNA (20 μg) from control or 278E-treated cells was electrophoresed on a 1.2% agarose gel and transferred to a nylon membrane. The blots were probed with radiolabeled cDNA of c-myc, c-fms, c-fos and c-jun. Glyceraldehyde-3-phosphate dehydrogenase (G3PDH) was used as an internal control.

HL-60 cells [5] = assay: Assay for superoxide production (NBT reduction); details: 5 days
Protocol: It has been known that immature blast cells had little superoxide production. The differentiation of cells is further evidenced in changes of superoxide production. Cells collected from example 1 after treatment with 278E for 5 days were collected and resuspended in RPMI 1640 medium at a concentration of 1×10^6 cells/ml and incubated for 30 min at 37° C. with an equal volume of nitroblue tetrazolium test stock solution [containing 2 mg of NBT and 1 μM of phorbol myristate acetate per ml of phosphate buffered saline]. Cells were collected and cytocentrifuged onto a microscope slide using cytospin. Cytospin preparations were counter-stained with 0.5% safranin O. The percentage of formazan-containing cells (based on counting 200 cells) was assessed microscopically.

HL-60 cells [6] = assay: Assay for cell growth inhibition (Trypan blue dye exclusion); details: for inhibition at 5 µg/mL: 5 μg/ml
Excerpt: The human myeloid leukemic cell line HL-60 is known to be induced by several biological agents or chemical drugs to differentiate into mature cells. The results of differentiation can be cell morphological changes, cell chemical changes or functionally mature changes. Therefore, HL-60 cells were often applied in many differentiation studies of leukemic cells. The present invention used the human myeloid leukemic cell line HL-60 (ATCC, Manassas, Va.) to study the cell differentiation inducting ability of 278E.
The HL-60 cells were cultured in RPMI 1640 medium containing 10% fetal bovine serum and maintained in an exponential growth state. For assay of cytotoxicity, cells were incubated at an initial concentration of 1×10^5 cells/ml in the presence of various concentrations of 278E compounds (1-6 μg/ml) for 1-5 days.

HL-60 cells [7] = assay: Induction of monocytic differentiation by various combination treatments; remark: listed apart in the source
Protocol: as §1, with “[…])” for “278E)”, “[…] These combination treatments included: […]” for “(1) immature blasts, (2) intermediates, or (3) mature monocytes or macrophages, and the ratio was counted respectively.”

IC50 (HL-60 cells [6]; Homo sapiens, HL-60 cells, viable cell count, 1-6 μg/ml for 1-5 days, read-out: concentration yielding 50% inhibition (IC50)): 3.48 µg/mL (≈ 8.01 µM)
Compound: COc1cc(-c2oc3c(OC)cc(CCCO)cc3c2CO)ccc1Oc1ccccc1 [278E]
monocytes/macrophages (%) (HL-60 cells [1]; 278E 6 μg/m with H7 15 μM): 51.3 ± 5.3%
monocytes/macrophages (%) (HL-60 cells [1]; 278E 6 μg/ml alone): 56.1 ± 6.2%
monocytes/macrophages (%) (HL-60 cells [1]; 278E 6 μg/ml with Staurosporine 10 nM): 55.6 ± 4.7%
Positive cells (%) CD11b (HL-60 cells [2]; 1 μg/ml): 1.8 ± 0.5%
Positive cells (%) CD14 (HL-60 cells [2]; 1 μg/ml): 1.5 ± 0.4%
Positive cells (%) CD68 (HL-60 cells [2]; 1 μg/ml): 1.4 ± 0.4%
Positive cells (%) CD11b (HL-60 cells [2]; 2 μg/ml): 2.6 ± 0.6%
Positive cells (%) CD14 (HL-60 cells [2]; 2 μg/ml): 2.1 ± 0.6%
Positive cells (%) CD68 (HL-60 cells [2]; 2 μg/ml): 1.8 ± 0.4%
Positive cells (%) CD11b (HL-60 cells [2]; 3 μg/ml): 18.1 ± 6.5 ^a %
Positive cells (%) CD14 (HL-60 cells [2]; 3 μg/ml): 5.8 ± 2.8%
Positive cells (%) CD68 (HL-60 cells [2]; 3 μg/ml): 5.6 ± 2.1%
Positive cells (%) CD11b (HL-60 cells [2]; 4 μg/ml): 62.1 ± 10.4 ^a %
Positive cells (%) CD14 (HL-60 cells [2]; 4 μg/ml): 47.7 ± 10.6 ^a %
Positive cells (%) CD68 (HL-60 cells [2]; 4 μg/ml): 34.5 ± 9.9 ^a %
Positive cells (%) CD11b (HL-60 cells [2]; 5 μg/ml): 79.6 ± 9.8 ^a %
Positive cells (%) CD68 (HL-60 cells [2]; 5 μg/ml): 53.7 ± 10.0 ^a %
cell morphology (HL-60 cells [3]; after 5 days of treatment (FIG. 2B)): many cells exhibited changes in characteristics
percentage of mature monocyte/macrophage (HL-60 cells [3]; after 5 days of treatment (FIG. 3), concentration not given): 82.0±6.3%
expression of c-myc ([4]; 6 μg/ml, 16 hour treatment (FIG. 4A)): markedly suppressed
expression of c-fms ([4]; after treatment (FIG. 4B)): enhanced
expression of c-jun ([4]; after treatment (FIG. 4C)): enhanced
expression of c-fos ([4]; after treatment (FIG. 4D)): enhanced
NBT reduction, Positive cells (%) (HL-60 cells [5]; 1 μg/ml): 0.3 ± 0.3%
NBT reduction, Positive cells (%) (HL-60 cells [5]; 2 μg/ml): 1.8 ± 1.2%
NBT reduction, Positive cells (%) (HL-60 cells [5]; 3 μg/ml): 9.3 ± 2.8%
NBT reduction, Positive cells (%) (HL-60 cells [5]; 4 μg/ml): 59.0 ± 12.6 ^a %
effect on cell viability compared with untreated cells (HL-60 cells [6]; 1 μg/ml): minimal effect
inhibition at 5 µg/mL (HL-60 cells [6]; Homo sapiens, HL-60, 72 h, day 3): 85.5 ± 2.8%
inhibition at 5 µg/mL (HL-60 cells [6]; Homo sapiens, HL-60, 120 h, day 5): 91.7 ± 1.7%
growth of HL-60 cells (HL-60 cells [6]; dose- and time-dependent (FIG. 1)): inhibited significantly

Compound: CC1CNCCN1S(=O)(=O)c1cccc2cnccc12 (centres unmarked) [H7]
monocytes/macrophages (%) (HL-60 cells [7]; H7 15 μM alone): 0%

Compound: CN[C@@H]1C[C@H]2O[C@@](C)([C@@H]1OC)n1c3ccccc3c3c4c(c5c6ccccc6n2c5c31)C(=O)NC4 [Staurosporine]
monocytes/macrophages (%) (HL-60 cells [7]; Staurosporine 10 nM alone): 0%

Compound: CCCCCCCCCCCCCC(=O)O[C@@H]1[C@@H](C)[C@@]2(O)[C@@H](C=C(CO)C[C@]3(O)C(=O)C(C)=C[C@@H]23)[C@H]2C(C)(C)[C@]12OC(C)=O [TPA]
differentiation-inducing activity after pretreatment of PKC inhibitor H7 and staurosporine (HL-60 cells [7]; HL-60 cells, Table 3): suppressed
monocytes/macrophages (%) (HL-60 cells [7]; TPA 10 ng/ml alone): 76.8 ± 7.2%
monocytes/macrophages (%) (HL-60 cells [7]; TPA 10 ng/ml with H7 15 μM): 30.2 ± 4.5%
monocytes/macrophages (%) (HL-60 cells [7]; TPA 10 ng/ml with Staurosporine 10 nM): 35.0 ± 2.3%
